Results published in ChEMBL document CHEMBL3046001, “4-Thiazolidinone and 1-thia-3,4,9-triaza fluorene conjugates: synthesis, characterization and antimicrobial screening” (2013).
In brackets after ≈: the same amount, converted by molar mass. Activity calls are given as the source filed them. The calls are words filed in the database; no cut-off is given here.

Legend:
Pseudomonas aeruginosa [1] = assay: Antibacterial activity against Pseudomonas aeruginosa MTCC 424 assessed as growth inhibition at 1000 ug/mL after 48 hr by agar diffusion method; type: functional; settings: MTCC 424, 48 h, read-out: DIZ
Bacillus subtilis [2] = assay: Antibacterial activity against Bacillus subtilis MTCC 441 assessed as growth inhibition at 250 ug/mL after 48 hr by agar diffusion method; type: functional; settings: MTCC 441, 48 h, read-out: DIZ
Pseudomonas aeruginosa [3] = assay: Antibacterial activity against Pseudomonas aeruginosa MTCC 424 assessed as growth inhibition at 1250 ug/mL after 48 hr by agar diffusion method; type: functional; settings: MTCC 424, 48 h, read-out: DIZ
Micrococcus luteus [4] = assay: Antibacterial activity against Micrococcus luteus MTCC 1538 assessed as growth inhibition at 100 ug/mL after 48 hr by agar diffusion method; type: functional
Escherichia coli [5] = assay: Antibacterial activity against Escherichia coli MTCC 1573 assessed as growth inhibition after 24 hr by tube dilution method; type: functional; settings: MTCC 1573, 24 h
Penicillium chrysogenum [6] = assay: Antifungal activity against Penicillium chrysogenum MTCC 161 assessed as growth inhibition at 100 ug/mL after 48 hr by agar diffusion method; type: functional, organism-based
Staphylococcus aureus [7] = assay: Antibacterial activity against Staphylococcus aureus MTCC 1430 assessed as growth inhibition at 500 ug/mL after 48 hr by agar diffusion method; type: functional; settings: MTCC 1430, 48 h, read-out: DIZ
Escherichia coli [8] = assay: Antibacterial activity against Escherichia coli MTCC 1573 assessed as growth inhibition at 1000 ug/mL after 48 hr by agar diffusion method; type: functional; settings: MTCC 1573, 48 h, read-out: DIZ
Staphylococcus aureus [9] = assay: Antibacterial activity against Staphylococcus aureus MTCC 1430 assessed as growth inhibition at 1250 ug/mL after 48 hr by agar diffusion method; type: functional; settings: MTCC 1430, 48 h, read-out: DIZ
Micrococcus luteus [10] = assay: Antibacterial activity against Micrococcus luteus MTCC 1538 assessed as growth inhibition at 750 ug/mL after 48 hr by agar diffusion method; type: functional; settings: MTCC 1538, 48 h, read-out: DIZ
Staphylococcus aureus [11] = assay: Antibacterial activity against Staphylococcus aureus MTCC 1430 assessed as growth inhibition at 100 ug/mL after 48 hr by agar diffusion method; type: functional, organism-based
Bacillus subtilis [12] = assay: Antibacterial activity against Bacillus subtilis MTCC 441 assessed as growth inhibition at 1250 ug/mL after 48 hr by agar diffusion method; type: functional; settings: MTCC 441, 48 h, read-out: DIZ
Micrococcus luteus [13] = assay: Antibacterial activity against Micrococcus luteus MTCC 1538 assessed as growth inhibition after 24 hr by tube dilution method; type: functional; settings: MTCC 1538, 24 h
Pseudomonas fluorescens [14] = assay: Antibacterial activity against Pseudomonas fluorescens MTCC 2421 assessed as growth inhibition at 1000 ug/mL after 48 hr by agar diffusion method; type: functional; settings: MTCC 2421, 48 h, read-out: DIZ
Staphylococcus aureus [15] = assay: Antibacterial activity against Staphylococcus aureus MTCC 1430 assessed as growth inhibition at 750 ug/mL after 48 hr by agar diffusion method; type: functional; settings: MTCC 1430, 48 h, read-out: DIZ
Bacillus pumilus [16] = assay: Antibacterial activity against Bacillus pumilus MTCC 1456 assessed as growth inhibition at 500 ug/mL after 48 hr by agar diffusion method; type: functional; settings: MTCC 1456, 48 h, read-out: DIZ
Pseudomonas aeruginosa [17] = assay: Antibacterial activity against Pseudomonas aeruginosa MTCC 424 assessed as growth inhibition at 250 ug/mL after 48 hr by agar diffusion method; type: functional; settings: MTCC 424, 48 h, read-out: DIZ
Pseudomonas fluorescens [18] = assay: Antibacterial activity against Pseudomonas fluorescens MTCC 2421 assessed as growth inhibition at 100 ug/mL after 48 hr by agar diffusion method; type: functional; settings: MTCC 2421, 48 h, read-out: DIZ
Micrococcus luteus [19] = assay: Antibacterial activity against Micrococcus luteus MTCC 1538 assessed as growth inhibition at 250 ug/mL after 48 hr by agar diffusion method; type: functional; settings: MTCC 1538, 48 h, read-out: DIZ
Escherichia coli [20] = assay: Antibacterial activity against Escherichia coli MTCC 1573 assessed as growth inhibition at 100 ug/mL after 48 hr by agar diffusion method; type: functional
Bacillus pumilus [21] = assay: Antibacterial activity against Bacillus pumilus MTCC 1456 assessed as growth inhibition at 1000 ug/mL after 48 hr by agar diffusion method; type: functional; settings: MTCC 1456, 48 h, read-out: DIZ
Pseudomonas aeruginosa [22] = assay: Antibacterial activity against Pseudomonas aeruginosa MTCC 424 assessed as growth inhibition at 750 ug/mL after 48 hr by agar diffusion method; type: functional; settings: MTCC 424, 48 h, read-out: DIZ
Micrococcus luteus [23] = assay: Antibacterial activity against Micrococcus luteus MTCC 1538 assessed as growth inhibition at 1000 ug/mL after 48 hr by agar diffusion method; type: functional; settings: MTCC 1538, 48 h, read-out: DIZ
Aspergillus niger [24] = assay: Antifungal activity against Aspergillus niger MTCC 2546 assessed as growth inhibition at 1250 ug/mL after 48 hr by agar diffusion method; type: functional; settings: MTCC 2546, 48 h, read-out: DIZ
Pseudomonas fluorescens [25] = assay: Antibacterial activity against Pseudomonas fluorescens MTCC 2421 assessed as growth inhibition at 500 ug/mL after 48 hr by agar diffusion method; type: functional; settings: MTCC 2421, 48 h, read-out: DIZ
Bacillus pumilus [26] = assay: Antibacterial activity against Bacillus pumilus MTCC 1456 assessed as growth inhibition at 250 ug/mL after 48 hr by agar diffusion method; type: functional; settings: MTCC 1456, 48 h, read-out: DIZ
Pseudomonas fluorescens [27] = assay: Antibacterial activity against Pseudomonas fluorescens MTCC 2421 assessed as growth inhibition at 750 ug/mL after 48 hr by agar diffusion method; type: functional; settings: MTCC 2421, 48 h, read-out: DIZ
Aspergillus niger [28] = assay: Antifungal activity against Aspergillus niger MTCC 2546 assessed as growth inhibition at 100 ug/mL after 48 hr by agar diffusion method; type: functional, organism-based
Bacillus pumilus [29] = assay: Antibacterial activity against Bacillus pumilus MTCC 1456 assessed as growth inhibition at 750 ug/mL after 48 hr by agar diffusion method; type: functional; settings: MTCC 1456, 48 h, read-out: DIZ
Bacillus pumilus [30] = assay: Antibacterial activity against Bacillus pumilus MTCC 1456 assessed as growth inhibition at 1250 ug/mL after 48 hr by agar diffusion method; type: functional; settings: MTCC 1456, 48 h, read-out: DIZ
Escherichia coli [31] = assay: Antibacterial activity against Escherichia coli MTCC 1573 assessed as growth inhibition at 250 ug/mL after 48 hr by agar diffusion method; type: functional; settings: MTCC 1573, 48 h, read-out: DIZ
Bacillus pumilus [32] = assay: Antibacterial activity against Bacillus pumilus MTCC 1456 assessed as growth inhibition at 100 ug/mL after 48 hr by agar diffusion method; type: functional; settings: MTCC 1456, 48 h, read-out: DIZ
Penicillium chrysogenum [33] = assay: Antifungal activity against Penicillium chrysogenum MTCC 161 assessed as growth inhibition at 1250 ug/mL after 48 hr by agar diffusion method; type: functional; settings: MTCC 161, 48 h, read-out: DIZ
Escherichia coli [34] = assay: Antibacterial activity against Escherichia coli MTCC 1573 assessed as growth inhibition at 750 ug/mL after 48 hr by agar diffusion method; type: functional; settings: MTCC 1573, 48 h, read-out: DIZ
Penicillium chrysogenum [35] = assay: Antifungal activity against Penicillium chrysogenum MTCC 161 assessed as growth inhibition at 1000 ug/mL after 48 hr by agar diffusion method; type: functional; settings: MTCC 161, 48 h, read-out: DIZ
Escherichia coli [36] = assay: Antibacterial activity against Escherichia coli MTCC 1573 assessed as growth inhibition at 1250 ug/mL after 48 hr by agar diffusion method; type: functional; settings: MTCC 1573, 48 h, read-out: DIZ
Pseudomonas fluorescens [37] = assay: Antibacterial activity against Pseudomonas fluorescens MTCC 2421 assessed as growth inhibition at 1250 ug/mL after 48 hr by agar diffusion method; type: functional; settings: MTCC 2421, 48 h, read-out: DIZ
Pseudomonas fluorescens [38] = assay: Antibacterial activity against Pseudomonas fluorescens MTCC 2421 assessed as growth inhibition after 24 hr by tube dilution method; type: functional; settings: MTCC 2421, 24 h
Pseudomonas fluorescens [39] = assay: Antibacterial activity against Pseudomonas fluorescens MTCC 2421 assessed as growth inhibition at 250 ug/mL after 48 hr by agar diffusion method; type: functional; settings: MTCC 2421, 48 h, read-out: DIZ

| MIC (Escherichia coli [5]) | MIC (Micrococcus luteus [13]) | Structure (SMILES) | zone of inhibition at 1000 µg/mL (Pseudomonas aeruginosa [1]) | zone of inhibition at 250 µg/mL (Bacillus subtilis [2]) | zone of inhibition at 1250 µg/mL (Pseudomonas aeruginosa [3]) | growth inhibition (GI) (Micrococcus luteus [4]) | growth inhibition (GI) (Penicillium chrysogenum [6]) | zone of inhibition at 500 µg/mL (Staphylococcus aureus [7]) | zone of inhibition at 1000 µg/mL (Escherichia coli [8]) | zone of inhibition at 1250 µg/mL (Staphylococcus aureus [9]) | zone of inhibition at 750 µg/mL (Micrococcus luteus [10]) | growth inhibition (GI) (Staphylococcus aureus [11]) | zone of inhibition at 1250 µg/mL (Bacillus subtilis [12]) | zone of inhibition at 1000 µg/mL (Pseudomonas fluorescens [14]) | zone of inhibition at 750 µg/mL (Staphylococcus aureus [15]) | zone of inhibition at 500 µg/mL (Bacillus pumilus [16]) | zone of inhibition at 250 µg/mL (Pseudomonas aeruginosa [17]) | zone of inhibition at 100 µg/mL (Pseudomonas fluorescens [18]) | zone of inhibition at 250 µg/mL (Micrococcus luteus [19]) | zone of inhibition at 1000 µg/mL (Bacillus pumilus [21]) | also measured |
| --- | --- | --- | --- | --- | --- | --- | --- | --- | --- | --- | --- | --- | --- | --- | --- | --- | --- | --- | --- | --- | --- |
| 150 µg/mL (≈ 375 µM) | 250 µg/mL (≈ 625 µM) | O=C1CSC(c2ccccn2)N1c1nnc2c3cc(Cl)ccc3nc-2s1 (stereo not drawn) | 18 mm | 7 mm | 20 mm | inactive | inactive | 9 mm | 20 mm | 17 mm | 12 mm | inactive | 22 mm | 17 mm | 11 mm | 15 mm | 10 mm | 7 mm | 7 mm | 20 mm | growth inhibition (GI) (Escherichia coli [20]): inactive; zone of inhibition at 750 µg/mL (Pseudomonas aeruginosa [22]): 15 mm; zone of inhibition at 1000 µg/mL (Micrococcus luteus [23]): 15 mm; zone of inhibition at 1250 µg/mL (Aspergillus niger [24]): 20 mm; zone of inhibition at 500 µg/mL (Pseudomonas fluorescens [25]): 11 mm; zone of inhibition at 250 µg/mL (Bacillus pumilus [26]): 13 mm; zone of inhibition at 750 µg/mL (Pseudomonas fluorescens [27]): 15 mm; growth inhibition (GI) (Aspergillus niger [28]): inactive; zone of inhibition at 750 µg/mL (Bacillus pumilus [29]): 18 mm; zone of inhibition at 1250 µg/mL (Bacillus pumilus [30]): 23 mm; zone of inhibition at 250 µg/mL (Escherichia coli [31]): 11 mm; zone of inhibition at 100 µg/mL (Bacillus pumilus [32]): 10 mm; zone of inhibition at 1250 µg/mL (Penicillium chrysogenum [33]): 20 mm; zone of inhibition at 750 µg/mL (Escherichia coli [34]): 15 mm; zone of inhibition at 1000 µg/mL (Penicillium chrysogenum [35]): 18 mm; zone of inhibition at 1250 µg/mL (Escherichia coli [36]): 23 mm; zone of inhibition at 1250 µg/mL (Pseudomonas fluorescens [37]): 21 mm; MIC (Pseudomonas fluorescens [38]): 50 µg/mL (≈ 125 µM); zone of inhibition at 250 µg/mL (Pseudomonas fluorescens [39]): 8 mm |
| 40 µg/mL (≈ 109 µM) | 250 µg/mL (≈ 684 µM) | O=C1CSC(c2ccccn2)N1c1nnc2c3ccccc3nc-2s1 (stereo not drawn) | 18 mm | 10 mm | 22 mm | inactive | inactive | 9 mm | 18 mm | 15 mm | 14 mm | inactive | 18 mm | 18 mm | 10 mm | 15 mm | 9 mm | 7 mm | 8 mm | 19 mm | zone of inhibition at 100 µg/mL (Escherichia coli [20]; MTCC 1573, 48 h, read-out: DIZ): 7 mm; zone of inhibition at 750 µg/mL (Pseudomonas aeruginosa [22]): 15 mm; zone of inhibition at 1000 µg/mL (Micrococcus luteus [23]): 15 mm; zone of inhibition at 1250 µg/mL (Aspergillus niger [24]): 17 mm; zone of inhibition at 500 µg/mL (Pseudomonas fluorescens [25]): 13 mm; zone of inhibition at 250 µg/mL (Bacillus pumilus [26]): 10 mm; zone of inhibition at 750 µg/mL (Pseudomonas fluorescens [27]): 15 mm; growth inhibition (GI) (Aspergillus niger [28]): inactive; zone of inhibition at 750 µg/mL (Bacillus pumilus [29]): 17 mm; zone of inhibition at 1250 µg/mL (Bacillus pumilus [30]): 21 mm; zone of inhibition at 250 µg/mL (Escherichia coli [31]): 9 mm; zone of inhibition at 100 µg/mL (Bacillus pumilus [32]): 8 mm; zone of inhibition at 1250 µg/mL (Penicillium chrysogenum [33]): 17 mm; zone of inhibition at 750 µg/mL (Escherichia coli [34]): 15 mm; zone of inhibition at 1000 µg/mL (Penicillium chrysogenum [35]): 15 mm; zone of inhibition at 1250 µg/mL (Escherichia coli [36]): 22 mm; zone of inhibition at 1250 µg/mL (Pseudomonas fluorescens [37]): 20 mm; MIC (Pseudomonas fluorescens [38]): 50 µg/mL (≈ 137 µM); zone of inhibition at 250 µg/mL (Pseudomonas fluorescens [39]): 10 mm |
